Test results: US20240050400A1, “Use of the Sesquiterpene Lactone Tomentosin in the Treatment of Tumors Caused by Lymphoid Cell Lines” (Universita Degli Studi Di Sassari, priority 2021, published 2024)

How the values were obtained:
[1] = test system: MM.1S (of multiple myeloma) cells; test: Cell proliferation (CellTiter-Glo) and cytotoxicity (CellTox Green) test, MM.1S; assay type: cell-based; settings: MM.1S cells; for effect on cells (cell proliferation / cell death): 48 hours of treatment
Description: (§1) The molecules were tested at 7 different concentrations: 50 μM, 25 μM, 12.5 μM, 6.25 μM, 3.125 μM, 1.56 μM, 0.75 μM, in culture with lymphoid tumor (myeloma, lymphoma) cell lines.
(§2) Tested cell lines: • MM.1S (of multiple myeloma), cultivated in RPMI-1640 medium, 10% FBS, L-Glutamine, AA • RPMI-8226 (of multiple myeloma), cultivated in RPMI-1640 medium, 10% FBS, L-Glutamine, AA; • Raji (of Burkitt lymphoma), cultivated in RPMI-1640 medium, 10% FBS, L-Glutamine, AA; • MRC5 (of pulmonary fibroblasts), cultivated in DMEM medium, 10% FBS, L-Glutamine, AA, Pyruvate Sodium, NEAA.
(§3) After 48 hours of treatment, drug-induced cellular death was estimated by measuring the intensity of the fluorescence signal after staining the dead cells using a known method (CellTox Green Dye—Promega).
(§4) Soon afterwards, the number of live cells was evaluated by adding CellTiter Glo P (Promega) reagent, through which the cell lysis and the luminescence signal are directly proportional to the ATP levels in each sample.
(§5) 24 hours prior to the addition of the compound under examination, the cells resuspended at adequate concentrations were seeded in 384-well flat clear bottom black polystyrene TC-treated microplates (Corning 3764).
(§6) Each well contained 20 μL of cell suspension. The day after, […] of the molecules under examination, with integrated CellTox (Promega G8731) green dye, were added to each sample to obtain the desired treatment concentrations.
(§7) The seeding of the cells, the preparation of the serial dilutions, and the addition of the molecules to the cells were performed using an automated liquid pipetting platform (Gilson Pipetmax).
(§8) 48 hours after the treatment, the intensity of the global green fluorescence in each well was quantified using Biotek Cytation 5. For each sample, four images were taken to cover the whole area of the well. Image merging, processing and background removal were performed using the Gen5 software. Immediately after the fluorescence reading, 30 μL of CellTiter Glo reagent (Promega G7571) just prepared were added to each well, and each sample was mixed 5 times. Ten minutes later, a luminescence reading was taken. Three technical replicates for each condition under examination were plated.
(§9) CellTiter-Glo is a reagent used for determining the number of viable cells in a culture based on the quantification of ATP, which signals the presence of metabolically active cells.
(§10) The reagent is added directly to the samples, resulting in cell lysis and generation of a luminescent signal that is proportional to the quantity of ATP. The luminescence signal is quantified using Promega Glo-Max Discover.
(§11) The CellTox green dye measures the changes that have occurred in the integrity of the membrane following cell death. The test uses a dye which is excluded from viable cells while coloring the DNA of dead cells. When the dye binds to the DNA of the compromised cells, the fluorescent properties of the dye are enhanced, whereas viable cells produce no perceptible increase in fluorescence. Therefore, the fluorescent signal produced by the dye is proportional to cytotoxicity. Fluorescence intensity (GFI) is quantified by means of a Biotek Cytation 5 wide-field automated digital microscope, led cube 465 nm, filter cube excitation 469±25 nm, emission 525±25 nm.
(§12) Cell viability is calculated as relative cell count (R): […]
(§13) where T is the number of cells in the treated sample and U is the number of cells in the untreated sample. […]

[2] = test system: Raji (of Burkitt lymphoma) cells; test: Cell proliferation (CellTiter-Glo) and cytotoxicity (CellTox Green) test, Raji; assay type: cell-based; settings: for effect on cells (cell proliferation / cell death): 48 hours of treatment
Description: as §1, §2, §3, §4, §5, §6, §7, §8, §9, §10, §11, §12, §13

[3] = test system: RPMI-8226 (of multiple myeloma) cells; test: Cell proliferation (CellTiter-Glo) and cytotoxicity (CellTox Green) test, RPMI-8226; assay type: cell-based; settings: RPMI-8226 cells; for effect on cells (cell proliferation / cell death): 0.75-50 μM, 48 hours of treatment
Description: The molecules were tested at 7 different concentrations: 50 μ[…], in culture with lymphoid tumor (myeloma, lymphoma) cell lines. Tested cell lines: • MM.1S (of multiple myeloma), cultivated in RPMI-1640 medium, 10% FBS, L-Glutamine, AA • RPMI-8226 (of multiple myeloma), cultivated in RPMI-1640 medium, 10% FBS, L-Glutamine, AA; • Raji (of Burkitt lymphoma), cultivated in RPMI-1640 medium, 10% FBS, L-Glutamine, AA; • MRC5 (of pulmonary fibroblasts), cultivated in DMEM medium, 10% FBS, L-Glutamine, AA, Pyruvate Sodium, NEAA. […] After 48 hours of treatment, drug-induced cellular death was estimated by measuring the intensity of the fluorescence signal after staining the dead cells using a known method (CellTox Green Dye-Promega). Soon afterwards, the number of live cells was evaluated by adding CellTiter Glo P (Promega) reagent, through which the cell lysis and the luminescence signal are directly proportional to the ATP levels in each sample. 24 hours prior to the addition of the compound under examination, the cells resuspended at adequate concentrations were seeded in 384-well flat clear bottom black polystyrene TC-treated microplates (Corning 3764). Each well contained 20 μL of cell suspension. […] The seeding of the cells, the preparation of the serial dilutions, and the addition of the molecules to the cells were performed using an automated liquid pipetting platform (Gilson […]). 48 hours after the treatment, the intensity of the global green fluorescence in each well was quantified using Biotek Cytation 5. […] Immediately after the fluorescence reading, 30 μL of CellTiter Glo reagent (Promega G7571) just prepared were added to each well, and each sample was mixed 5 times. Ten minutes later, a luminescence reading was taken. […] CellTiter-Glo is a reagent used for determining the number of viable cells in a culture based on the quantification of ATP, which signals the presence of metabolically active cells. The reagent is added directly to the samples, resulting in cell lysis and generation of a luminescent signal that is proportional to the quantity of ATP. The luminescence signal is quantified using Promega Glo-Max Discover. […] When the dye binds to the DNA of the compromised cells, the fluorescent properties of the dye are enhanced, whereas viable cells produce no perceptible increase in fluorescence. […] Fluorescence intensity (GFI) is quantified by means of a Biotek Cytation 5 wide-field automated digital microscope, led cube 465 nm, filter cube excitation 469±25 nm, emission 525±25 nm. Cell viability is calculated as relative cell count (R): R=T/U×100 where T is the number of cells in the treated sample and U is the number of cells in the untreated sample. […] Cell death is measured as green fluorescence intensity (GFI).

[4] = test system: aggressive human melanoma cell lines; settings: cited from earlier work
[5] = test system: MRC5 (of pulmonary fibroblasts) non-tumor cells; test: Cell proliferation (CellTiter-Glo) and cytotoxicity (CellTox Green) test, MRC5 non-tumor control; assay type: cell-based; settings: for IC50 relative to the maximum concentration tested: highest tested concentration 50 μM
Description: The MRC5 cell line was used as a control to evaluate if these molecules were toxic also towards non-tumor cells.
Soon afterwards, the number of live cells was evaluated by adding CellTiter Glo P (Promega) reagent, through which the cell lysis and the luminescence signal are directly proportional to the ATP levels in each sample. […]

[6] = test system: MOLT-4 cell line of human leukemia; settings: through inhibition of the mTOR/PI3K/Akt signalling pathway; cited from earlier work
[7] = highest tested concentration 50 μM

| Structure (SMILES) | effect on cells (cell proliferation / cell death) ([1]; 0.75-50 μM) | IC50 ([1]; after 72 hours of culture) [µM] | effect on cells (cell proliferation / cell death) ([2]; 0.75-50 μM) | IC50 ([2]; after 72 hours of culture) [µM] | effect on cells (cell proliferation / cell death) [3] | IC50 ([3]; after 72 hours of culture) [µM] | pro-apoptotic effect [4] | anti-proliferative activity ([5]; 0.75-50 μM) | IC50 relative to the maximum concentration tested [5] | effect on cell proliferation and apoptosis [6] | anti-proliferative activity ([1]; 0.75-50 μM) | IC50 relative to the maximum concentration tested [1, 7] | anti-proliferative activity ([2]; 0.75-50 μM) | IC50 relative to the maximum concentration tested [2, 7] |
| --- | --- | --- | --- | --- | --- | --- | --- | --- | --- | --- | --- | --- | --- | --- |
| N.N.[Cl][Pt][Cl] [cysplatin, Cisplatin] | reduced cell proliferation and increased cell death | 12.3 | reduced cell proliferation and increased cell death | 25.7 | reduced cell proliferation and increased cell death | 14.9 | – | – | – | – | – | – | – | – |
| C=C1C(=O)O[C@@H]2C[C@H](C)C(CCC(C)=O)=CC[C@H]12 [Tomentosin] | cytotoxic effect | – | cytotoxic effect | – | cytostatic effect | – | strong pro-apoptotic effect | low anti-proliferative activity | > the maximum concentration | inhibits cell proliferation and induces apoptosis | – | – | – | – |
| C=C1C(=O)O[C@H]2CC(=C)[C@H]3CC[C@@](C)(O)[C@@H]3C[C@H]12 [Inuvisculide] | – | – | – | – | cytostatic effect | – | strong pro-apoptotic effect | – | > the maximum concentration | – | low anti-proliferative activity | > the maximum concentration | low anti-proliferative activity | > the maximum concentration |
